According to ChEMBL document CHEMBL5390209, “Spinosyn A and Its Derivative Inhibit Colorectal Cancer Cell Growth via the EGFR Pathway” (J Nat Prod, 2023):
Activity calls are given as the source filed them. The rule behind the calls is not given here.

What was measured:
HT-29 [1] = test: Inhibition of EGFR in human HT-29 cells xenografted in BALB/c nude mouse assessed as reduction in EGFR protein expression level in tumor at 5 mg/kg/day, ip administrated for every other day and measured after 28 days by immunohistochemistry staining based analysis; assay type: functional, organism-based; details: time 28.0 day
HT-29 [2] = test: Inhibition of colony formation in EGFR knockdown human HT-29 cells at 6 uM incubated for 14 days by crystal violet staining based colony formation assay; assay type: functional, cell-based; details: time 14.0 day
[3] = target: Epidermal growth factor receptor (Homo sapiens) (UniProt P00533); test: Inhibition of EGFR in human SW480 cells assessed as reduction in STAT3 phosphorylation level at 3.75 to 15 uM incubated for 24 hrs by Western blot analysis; assay type: cell-based; details: dose 3.75-15 µM
SW480 [4] = test: Inhibition of colony formation in human SW480 cells at 6 uM incubated for 14 days by crystal violet staining based colony formation assay; assay type: functional, cell-based; details: time 14.0 day
LoVo [5] = test: Inhibition of colony formation in human LoVo cells at 6 uM incubated for 14 days by crystal violet staining based colony formation assay; assay type: functional, cell-based; details: time 14.0 day
[6] = target: Epidermal growth factor receptor (Homo sapiens) (UniProt P00533); test: Inhibition of EGFR in human HT-29 cells assessed as reduction in STAT3 phosphorylation level at 3.75 to 15 uM incubated for 24 hrs by Western blot analysis; assay type: cell-based; details: dose 3.75-15 µM
SW480 [7] = test: Inhibition of colony formation in double EGFR/HER2 knockdown human SW480 cells at 6 uM incubated for 14 days by crystal violet staining based colony formation assay; assay type: functional, cell-based; details: time 14.0 day
HT-29 [8] = test: Inhibition of colony formation in HER2 knockdown human HT-29 cells at 6 uM incubated for 14 days by crystal violet staining based colony formation assay; assay type: functional, cell-based; details: time 14.0 day
[9] = target: Epidermal growth factor receptor (Homo sapiens) (UniProt P00533); test: Inhibition of EGFR in human HT-29 cells at 15 uM by Western blot analysis; assay type: cell-based; details: time 3-15 hrs, TDE = time-dependent effect
[10] = target: Epidermal growth factor receptor (Homo sapiens) (UniProt P00533); test: Inhibition of EGFR in human HT-29 cells assessed as reduction in STAT3 phosphorylation level at 15 uM by Western blot analysis; assay type: cell-based; details: time 3-15 hrs, TDE = time-dependent effect
HT-29 [11] = test: Antitumor activity against human HT-29 cells xenografted Balb/c mouse assessed as inhibited tumor growth at 5 mg/kg/day, ip administrated for every other day and measured after 6 days; assay type: functional, organism-based; details: time 6.0 day
HCT-116 [12] = test: Inhibition of colony formation in human HCT-116 cells at 6 uM incubated for 14 days by crystal violet staining based colony formation assay; assay type: functional, cell-based; details: time 14.0 day
[13] = target: Epidermal growth factor receptor (Homo sapiens) (UniProt P00533); test: Inhibition of EGFR in human SW480 cells assessed as reduction in MEK1/2 phosphorylation level at 3.75 to 15 uM incubated for 24 hrs by Western blot analysis; assay type: cell-based; details: dose 3.75-15 µM
[14] = Toxicity in human HT-29 cells xenografted Balb/c mouse assessed as change in spleen pathology at 5 mg/kg/day, ip administrated for every other day and measured after 28 days; assay type: organism-based; details: in vivo, 672 h, time 28 day
[15] = Toxicity in human HT-29 cells xenografted Balb/c mouse assessed as change in heart pathology at 5 mg/kg/day, ip administrated for every other day and measured after 28 days; assay type: organism-based; details: in vivo, 672 h, time 28 day
[16] = Toxicity in human HT-29 cells xenografted Balb/c mouse assessed as change in lung pathology at 5 mg/kg/day, ip administrated for every other day and measured after 28 days; assay type: organism-based; details: in vivo, 672 h, time 28 day
HT-29 [17] = test: Antitumor activity against human HT-29 cells xenografted Balb/c mouse assessed as reduction in tumor cell density at 5 mg/kg/day, ip administrated for every other day and measured after 28 days by Hematoxylin and Eosin staining based method; assay type: functional, organism-based; details: time 28.0 day
HT-29 [18] = test: Inhibition of HER2 in human HT-29 cells xenografted in BALB/c nude mouse assessed as HER2 protein level in tumor at 5 mg/kg/day, ip administrated for every other day and measured after 28 days by Western blotting analysis; assay type: functional, organism-based; details: time 28.0 day
[19] = Toxicity in human HT-29 cells xenografted Balb/c mouse assessed as change in lung pathology at 2.5 mg/kg/day, ip administrated for every other day and measured after 28 days; assay type: organism-based; details: in vivo, 672 h, time 28 day
[20] = Toxicity in human HT-29 cells xenografted Balb/c mouse assessed as change in heart pathology at 2.5 mg/kg/day, ip administrated for every other day and measured after 28 days; assay type: organism-based; details: in vivo, 672 h, time 28 day
[21] = target: Epidermal growth factor receptor (Homo sapiens) (UniProt P00533); test: Inhibition of EGFR in human HT-29 cells assessed as reduction in ratio of p-EGFR/EGFR level at 2 uM measured after 3 to 15 hrs by Western blot analysis; assay type: cell-based; details: time 3-15 hrs
LoVo [22] = test: Inhibition of colony formation in human LoVo cells at 0.75 uM incubated for 14 days by crystal violet staining based colony formation assay; assay type: functional, cell-based; details: time 14.0 day
[23] = target: Epidermal growth factor receptor (Homo sapiens) (UniProt P00533); test: Inhibition of EGFR in human HT-29 cells assessed as reduction in MEK1/2 phosphorylation level at 0.5 to 2 uM incubated for 24 hrs by Western blotting analysis; assay type: cell-based; details: dose 0.5-2 µM
[24] = target: Epidermal growth factor receptor (Homo sapiens) (UniProt P00533); test: Inhibition of EGFR in human SW480 cells assessed as reduction in Erk1/2 phosphorylation level at 0.5 to 2 uM incubated for 24 hrs by Western blotting analysis; assay type: cell-based; details: dose 0.5-2 µM
[25] = target: Epidermal growth factor receptor (Homo sapiens) (UniProt P00533); test: Inhibition of EGFR in human SW480 cells assessed as reduction in MEK1/2 phosphorylation level at 0.5 to 2 uM incubated for 24 hrs by Western blotting analysis; assay type: cell-based; details: dose 0.5-2 µM
HT-29 [26] = test: Antitumor activity against human HT-29 cells xenografted Balb/c mouse assessed as reduction in Ki67 expression level at 2.5 mg/kg/day, ip administrated for every other day and measured after 28 days by immunohistochemistry staining method; assay type: functional, organism-based; details: time 28.0 day
[27] = target: Receptor tyrosine-protein kinase erbB-2 (Homo sapiens) (UniProt P04626); test: Inhibition of HER2 in human HT-29 cells at 2 uM by Western blotting analysis; assay type: cell-based; details: time 3-15 hrs, TDE = time-dependent effect
HCT-116 [28] = test: Inhibition of colony formation in human HCT-116 cells at 0.75 uM incubated for 14 days by crystal violet staining based colony formation assay; assay type: functional, cell-based; details: time 14.0 day
HT-29 [29] = test: Inhibition of colony formation in HER2 knockdown human HT-29 cells at 0.75 uM incubated for 14 days by crystal violet staining based colony formation assay; assay type: functional, cell-based; details: time 14.0 day
HT-29 [30] = test: Inhibition of colony formation in human HT-29 cells at 0.75 uM incubated for 14 days by crystal violet staining based colony formation assay; assay type: functional, cell-based; details: time 14.0 day
HT-29 [31] = test: Inhibition of colony formation in EGFR knockdown human HT-29 cells at 0.75 uM incubated for 14 days by crystal violet staining based colony formation assay; assay type: functional, cell-based; details: time 14.0 day
HT-29 [32] = test: Inhibition of HER2 in human HT-29 cells xenografted in BALB/c nude mouse assessed as HER2 protein level in tumor at 2.5 mg/kg/day, ip administrated for every other day and measured after 28 days by Western blotting analysis; assay type: functional, organism-based; details: time 28.0 day
[33] = target: Epidermal growth factor receptor (Homo sapiens) (UniProt P00533); test: Inhibition of EGFR in human HT-29 cells assessed as reduction in Erk1/2 phosphorylation level at 0.5 to 2 uM incubated for 24 hrs by Western blotting analysis; assay type: cell-based; details: dose 0.5-2 µM
SW480 [34] = test: Inhibition of colony formation in human SW480 cells at 0.75 uM incubated for 14 days by crystal violet staining based colony formation assay; assay type: functional, cell-based; details: time 14.0 day
[35] = target: Epidermal growth factor receptor (Homo sapiens) (UniProt P00533); test: Inhibition of EGFR in human HT-29 cells assessed as reduction in MEK1/2 phosphorylation level at 2 uM by Western blotting analysis; assay type: cell-based; details: time 3-15 hrs, TDE = time-dependent effect
HT-29 [36] = test: Inhibition of colony formation in double EGFR/HER2 knockdown human HT-29 cells at 0.75 uM incubated for 14 days by crystal violet staining based colony formation assay; assay type: functional, cell-based; details: time 14.0 day

Chain of Epidermal growth factor receptor (Homo sapiens) (P00533 whole entry): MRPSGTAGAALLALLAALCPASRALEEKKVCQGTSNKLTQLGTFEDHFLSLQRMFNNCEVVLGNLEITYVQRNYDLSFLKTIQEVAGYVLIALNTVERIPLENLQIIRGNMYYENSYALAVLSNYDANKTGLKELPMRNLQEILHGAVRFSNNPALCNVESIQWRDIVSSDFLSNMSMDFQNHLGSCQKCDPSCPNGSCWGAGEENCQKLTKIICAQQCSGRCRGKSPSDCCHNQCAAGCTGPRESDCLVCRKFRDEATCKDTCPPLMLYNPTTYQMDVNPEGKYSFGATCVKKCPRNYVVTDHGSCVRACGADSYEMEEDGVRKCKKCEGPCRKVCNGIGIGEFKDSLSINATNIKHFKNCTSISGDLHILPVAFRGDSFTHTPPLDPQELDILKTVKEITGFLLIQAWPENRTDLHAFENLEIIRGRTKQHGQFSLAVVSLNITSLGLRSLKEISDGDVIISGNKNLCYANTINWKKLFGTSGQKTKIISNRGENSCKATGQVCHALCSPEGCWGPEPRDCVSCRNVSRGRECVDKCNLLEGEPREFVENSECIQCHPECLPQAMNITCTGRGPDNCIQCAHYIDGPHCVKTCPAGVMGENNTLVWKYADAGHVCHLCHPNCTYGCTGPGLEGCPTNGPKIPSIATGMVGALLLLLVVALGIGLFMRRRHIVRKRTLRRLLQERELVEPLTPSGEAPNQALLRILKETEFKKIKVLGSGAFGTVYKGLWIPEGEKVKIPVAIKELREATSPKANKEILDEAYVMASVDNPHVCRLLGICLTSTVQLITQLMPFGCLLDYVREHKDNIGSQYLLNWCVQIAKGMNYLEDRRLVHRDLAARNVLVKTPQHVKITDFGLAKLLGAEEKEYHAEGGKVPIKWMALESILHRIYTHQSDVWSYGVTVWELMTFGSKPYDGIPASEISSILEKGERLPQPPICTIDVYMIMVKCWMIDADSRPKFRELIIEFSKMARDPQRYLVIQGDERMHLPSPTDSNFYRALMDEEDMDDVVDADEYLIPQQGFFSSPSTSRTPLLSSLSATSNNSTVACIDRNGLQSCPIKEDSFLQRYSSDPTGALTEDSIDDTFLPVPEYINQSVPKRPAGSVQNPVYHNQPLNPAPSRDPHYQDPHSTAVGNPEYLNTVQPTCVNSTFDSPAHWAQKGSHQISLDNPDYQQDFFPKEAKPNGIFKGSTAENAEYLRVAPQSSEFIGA
Chain of Receptor tyrosine-protein kinase erbB-2 (Homo sapiens) (P04626 whole entry): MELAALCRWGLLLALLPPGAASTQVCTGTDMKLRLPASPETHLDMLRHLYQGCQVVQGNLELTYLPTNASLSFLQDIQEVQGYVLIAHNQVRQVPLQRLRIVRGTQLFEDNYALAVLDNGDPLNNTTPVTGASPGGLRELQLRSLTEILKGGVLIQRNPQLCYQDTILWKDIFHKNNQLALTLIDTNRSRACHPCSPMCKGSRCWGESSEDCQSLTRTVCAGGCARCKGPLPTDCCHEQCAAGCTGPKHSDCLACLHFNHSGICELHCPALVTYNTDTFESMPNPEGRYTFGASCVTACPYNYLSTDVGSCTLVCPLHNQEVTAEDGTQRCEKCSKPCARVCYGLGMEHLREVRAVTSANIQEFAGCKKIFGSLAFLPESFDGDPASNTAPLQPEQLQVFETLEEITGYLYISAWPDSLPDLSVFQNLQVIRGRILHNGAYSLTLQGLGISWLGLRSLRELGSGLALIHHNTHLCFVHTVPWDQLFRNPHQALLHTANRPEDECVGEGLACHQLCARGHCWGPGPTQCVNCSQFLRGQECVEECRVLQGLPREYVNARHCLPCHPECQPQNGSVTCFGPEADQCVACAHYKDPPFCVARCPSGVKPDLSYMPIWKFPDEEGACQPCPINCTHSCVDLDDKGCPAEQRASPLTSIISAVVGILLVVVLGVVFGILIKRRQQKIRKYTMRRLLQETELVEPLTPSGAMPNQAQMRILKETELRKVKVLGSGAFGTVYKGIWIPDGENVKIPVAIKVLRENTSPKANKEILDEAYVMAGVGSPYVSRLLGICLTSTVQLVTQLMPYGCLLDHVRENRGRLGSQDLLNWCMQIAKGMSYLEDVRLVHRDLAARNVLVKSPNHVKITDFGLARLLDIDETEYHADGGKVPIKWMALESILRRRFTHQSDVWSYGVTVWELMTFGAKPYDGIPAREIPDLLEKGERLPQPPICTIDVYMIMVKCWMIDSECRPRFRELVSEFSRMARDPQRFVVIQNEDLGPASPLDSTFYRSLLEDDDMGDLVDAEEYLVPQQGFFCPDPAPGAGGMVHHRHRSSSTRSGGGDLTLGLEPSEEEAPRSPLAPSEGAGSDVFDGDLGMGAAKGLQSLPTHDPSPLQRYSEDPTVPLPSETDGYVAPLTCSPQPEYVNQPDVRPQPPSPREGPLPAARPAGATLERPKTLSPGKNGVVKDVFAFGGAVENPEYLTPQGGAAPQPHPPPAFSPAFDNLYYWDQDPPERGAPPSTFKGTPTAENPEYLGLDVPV

**Q.** Which inhibition (HT-29 [1]) does the source give for CC[C@H]1CCC[C@H](O[C@H]2CC[C@H](N(C)C)[C@@H](C)O2)[C@@H](C)C(=O)C2=C[C@@H]3[C@@H](C=C[C@@H]4C[C@@H](O[C@@H]5O[C@@H](C)[C@H](OC)[C@@H](OC)[C@H]5OC)C[C@@H]34)[C@@H]2CC(=O)O1 [SPINOSYN A] here?
**A.** Active

**Q.** And the Activity (HT-29 [2])?
**A.** inactive

**Q.** What about the inhibition [3] of the same molecule?
**A.** Active

**Q.** What about the inhibition (SW480 [4]) of the same molecule?
**A.** Active

**Q.** What about the inhibition (LoVo [5]) of the same molecule?
**A.** Active

**Q.** And the inhibition [6]?
**A.** Active

**Q.** And the Activity (SW480 [7])?
**A.** inactive

**Q.** What about the Activity (HT-29 [8]) of the same molecule?
**A.** inactive

**Q.** What about the inhibition [9] of the same molecule?
**A.** Tde

**Q.** What about the inhibition [10] of the same molecule?
**A.** Tde

**Q.** What about the inhibition (HT-29 [11]) of the same molecule?
**A.** Active

**Q.** What about the inhibition (HCT-116 [12]) of the same molecule?
**A.** Active

**Q.** What about the inhibition [13] of the same molecule?
**A.** Active

**Q.** What about the Activity [14] of the same molecule?
**A.** Non-Toxic

**Q.** And the Activity [15]?
**A.** Non-Toxic

**Q.** What about the Activity [16] of the same molecule?
**A.** Non-Toxic

**Q.** What about the Activity (HT-29 [17]) of the same molecule?
**A.** Active

**Q.** What about the inhibition (HT-29 [18]) of the same molecule?
**A.** Active

**Q.** With CC[C@H]1CCC[C@H](O[C@H]2CC[C@H](N(C)CC(O)CN3CCNCC3)[C@@H](C)O2)[C@@H](C)C(=O)C2=C[C@@H]3[C@@H](C=C[C@@H]4C[C@@H](O[C@@H]5O[C@@H](C)[C@H](OC)[C@@H](OC)[C@H]5OC)C[C@@H]34)[C@@H]2CC(=O)O1 (stereo partly specified) as the molecule, how does the Activity [19] read?
**A.** Non-Toxic

**Q.** What about the Activity [20] of the same molecule?
**A.** Non-Toxic

**Q.** What about the inhibition [21] of the same molecule?
**A.** Active

**Q.** And the inhibition (LoVo [22])?
**A.** Active

**Q.** And the inhibition [23]?
**A.** Active

**Q.** And the inhibition [24]?
**A.** Active

**Q.** What about the inhibition [25] of the same molecule?
**A.** Active

**Q.** And the Activity (HT-29 [26])?
**A.** Active

**Q.** What about the inhibition [27] of the same molecule?
**A.** Tde

**Q.** And the inhibition (HCT-116 [28])?
**A.** Active

**Q.** What about the Activity (HT-29 [29]) of the same molecule?
**A.** inactive

**Q.** And the inhibition (HT-29 [30])?
**A.** Active

**Q.** What about the Activity (HT-29 [31]) of the same molecule?
**A.** inactive

**Q.** What about the inhibition (HT-29 [32]) of the same molecule?
**A.** Active

**Q.** What about the inhibition [33] of the same molecule?
**A.** Active

**Q.** What about the inhibition (SW480 [34]) of the same molecule?
**A.** Active

**Q.** What about the inhibition [35] of the same molecule?
**A.** Tde

**Q.** And the Activity (HT-29 [36])?
**A.** inactive
